From patent US3988450A, “Cephalosporins” (priority 1974, dated 1976)
Converted amounts (≈) assume the structure as drawn. Read-outs that look alike come from different tables or passages of the source.

What was measured:
[1] = Serum concentrations in mice after sub-cutaneous injection, microbiological assay; assay type: in vivo; conditions: mouse, sc, 50 mg/kg sub-cutaneous, average, read-out: Serum concentrations at time after dosing; for concentration at 0.5 h: 30 min; for concentration at 1 h: 60 min
Method: Each compound was injected sub-cutaneously into groups of mice at a dose of 50 mg/kg, and serum samples were taken at timed intervals thereafter and assayed microbiologically for their antibiotic content using the appropriate compound as standard.

E. coli JT1 = test: MIC on nutrient agar; assay type: cell-based; conditions: Escherichia coli
From the text: (§1) The minimum inhibitory concentrations of this compound required to inhibit the growth of various bacteria on nutrient agar are tabulated below: […]

Klebsiella aerogenes A = test: MIC on nutrient agar; assay type: cell-based
From the text: as §1

Shigella sonnei = test: MIC on nutrient agar; assay type: cell-based
From the text: as §1

Enterobacter cloacae N1 = test: MIC on nutrient agar; assay type: cell-based
From the text: as §1

β-Haemolytic Strep. CN10 = test: MIC on nutrient agar; assay type: cell-based
From the text: as §1

Staph. aureus Oxford = test: MIC on nutrient agar; assay type: cell-based; conditions: Staphylococcus aureus
From the text: as §1

Proteus mirabilis C977 = test: MIC on nutrient agar; assay type: cell-based
From the text: as §1

Salmonella typhi = test: MIC on nutrient agar; assay type: cell-based; conditions: Salmonella enterica
From the text: as §1

Serratia marcescens US32 = test: MIC on nutrient agar; assay type: cell-based
From the text: as §1

B. subtilis = test: MIC on nutrient agar; assay type: cell-based; conditions: Bacillus subtilis
From the text: as §1

Staph. aureus Russell = test: MIC on nutrient agar; assay type: cell-based; conditions: Staphylococcus aureus
[2] = general knowledge; cited from earlier work
P. mirabilis 899 = test: MIC on nutrient agar; assay type: cell-based; conditions: Proteus mirabilis; P. mirabilis 899, nutrient agar
P. morganii = test: MIC on nutrient agar; assay type: cell-based; conditions: Morganella morganii
From the text: as §1

P. mirabilis 889 = test: MIC on nutrient agar; assay type: cell-based; conditions: Proteus mirabilis; P. mirabilis 889, nutrient agar
From the text: as §1

[3] = E. coli JT1, nutrient agar, read-out: MIC

Row | SMILES | MIC (Klebsiella aerogenes A) [µg/mL] | MIC (Shigella sonnei) [µg/mL] | MIC (β-Haemolytic Strep. CN10) [µg/mL] | MIC (Staph. aureus Oxford) [µg/mL] | MIC (Proteus mirabilis C977) [µg/mL] | MIC (Salmonella typhi) [µg/mL] | MIC (E. coli JT1; [3]) [µg/mL] | MIC (B. subtilis) [µg/mL] | MIC (Staph. aureus Russell) [µg/mL] | other results
1 | N[C@@H](C(=O)N[C@@H]1C(=O)N2C(C(=O)O)=C(Cc3ccc(C(=O)O)cc3)CS[C@H]12)c1ccccc1 [p-carboxy isomer, 3-(p-Carboxybenzyl)-7β-(D-α-phenylglycyl)amino-ceph-3-em-4-carboxylic acid] |  |  |  |  |  |  |  |  |  | concentration at 10 min [1]: 75 µg/mL; concentration at 20 min [1]: 87 µg/mL; concentration at 0.5 h [1]: 69 µg/mL; concentration at 1 h [1]: 48000 ng/mL; concentration at 2 h [1]: 22000 ng/mL; concentration at 4 h [1]: 9300 ng/mL
2 | CN(C(=O)C=Cc1ccccc1)C(=O)N[C@@H](C(=O)N[C@@H]1C(=O)N2C(C(=O)O)=C(Cc3ccc(C(=O)O)cc3)CS[C@H]12)c1ccccc1 [XXI, 3-(p-Carboxybenzyl)-7β-[D-α-(3-cinnamoyl-3-methylureido)phenylacetamido]ceph-3-em-4-carboxylic acid] | 5 (≈ 7.64 µM) | 5 (≈ 7.64 µM) | 0.12 (≈ 0.183 µM) | 2.5 (≈ 3.82 µM) | 5 (≈ 7.64 µM) | 12.5 (≈ 19.1 µM) |  |  |  | MIC (E. coli JT1; JT1): 12.5 µg/mL (≈ 19.1 µM); MIC (Enterobacter cloacae N1): 5 µg/mL (≈ 7.64 µM); MIC (Serratia marcescens US32): 5 µg/mL (≈ 7.64 µM)
3 | N[C@@H](C(=O)N[C@@H]1C(=O)N2C(C(=O)O)=C(Cc3cccc(C(=O)O)c3)CS[C@H]12)c1ccccc1 [m-carboxy isomer, 3-(m-Carboxybenzyl)-7β-(D-α-phenylglycyl)amino-ceph-3-em-4-carboxylic acid] |  |  |  |  |  |  |  |  |  | concentration at 10 min [1]: 84 µg/mL; concentration at 20 min [1]: 64 µg/mL; concentration at 0.5 h [1]: 50 µg/mL; concentration at 1 h [1]: 26000 ng/mL; concentration at 2 h [1]: 14000 ng/mL; concentration at 4 h [1]: 1600 ng/mL
4 | N[C@@H](C(=O)N[C@@H]1C(=O)N2C(C(=O)O)=C(Cc3ccc(C(=O)O)cc3)CS[C@H]12)c1ccccc1.O=C(O)C(F)(F)F [XIII, 3-(p-Carboxybenzyl)-7β-(D-α-phenylglycyl)amino-ceph-3-em-4-carboxylic acid trifluoroacetic acid salt] |  | 5 | 0.5 | 0.5 | 1.25 | 0.5 | 12.5 | 1.25 | 2.5 | 
5 | CN(C(=O)C=Cc1ccccc1)C(=O)N[C@@H](C(=O)N[C@@H]1C(=O)N2C(C(=O)O)=C(Cc3ccccc3C(=O)O)CS[C@H]12)c1ccccc1 [LVIX, 3-(o-Carboxybenzyl)-7β-[D-α-(3-cinnamoul-3-methylureido)phenylacetamido]ceph-3-em-4-carboxylic acid] |  | 4 (≈ 6.11 µM) | 0.25 (≈ 0.382 µM) | 4 (≈ 6.11 µM) |  |  |  |  |  | MIC (Serratia marcescens US32): 4 µg/mL (≈ 6.11 µM)
6 | Cc1nnc(SCC2=C(C(=O)O)N3C(=O)[C@@H](NC(=O)Cn4cnnn4)[C@H]3SC2)s1 [Cefazolin, reference compound] |  |  |  |  |  |  |  |  |  | concentration at 10 min [1]: 45 µg/mL; concentration at 20 min [1]: 37 µg/mL; concentration at 0.5 h [1]: 21 µg/mL; concentration at 1 h [1]: < 4000 ng/mL; concentration at 2 h [1]: < 4000 ng/mL; concentration at 4 h [1]: < 4000 ng/mL; duration of action (regarded as) [2]: relatively `long-acting` cephalosporin
7 | O=C(O)C1=C(Cc2cccc(C(=O)O)c2)CS[C@@H]2[C@H](NC(=O)[C@H](O)c3ccccc3)C(=O)N12 [XLIII] |  |  | 2 (≈ 4.27 µM) | 0.5 (≈ 1.07 µM) | 8 (≈ 17.1 µM) | 8 (≈ 17.1 µM) |  | 0.5 (≈ 1.07 µM) |  | 
8 | O=C(Cc1cccs1)N[C@@H]1C(=O)N2C(C(=O)O)=C(Cc3ccc(C(=O)O)cc3)CS[C@H]12 [XXX, 7β-(2-Thienylacetamido)-3-(p-carboxybenzyl)ceph-3-em-4-carboxylic acid] |  |  | 0.5 (≈ 1.09 µM) | 0.1 (≈ 0.218 µM) | 5 (≈ 10.9 µM) | 5 (≈ 10.9 µM) |  | 1.2 (≈ 2.62 µM) | 5 (≈ 10.9 µM) | MIC (P. mirabilis 899): 2.5 µg/mL (≈ 5.45 µM)
9 | O=C(O)C1=C(Cc2ccc(C(=O)O)cc2)CS[C@@H]2[C@H](NC(=O)[C@H](O)c3ccccc3)C(=O)N12 [XV] |  |  | 0.25 (≈ 0.534 µM) | 0.25 (≈ 0.534 µM) | 0.5 (≈ 1.07 µM) | 5 (≈ 10.7 µM) | 5 (≈ 10.7 µM) | 0.5 (≈ 1.07 µM) |  | 
10 | N[C@@H](C(=O)N[C@@H]1C(=O)N2C(C(=O)O)=C(Cc3ccccc3C(=O)O)CS[C@H]12)c1ccccc1 [o-carboxy isomer, 3-(o-Carboxybenzyl)-7β-(D-α-phenylglycyl)aminoceph-3-em-4-carboxylic acid] |  |  |  |  |  |  |  |  |  | concentration at 10 min [1]: 63 µg/mL; concentration at 20 min [1]: 66 µg/mL; concentration at 0.5 h [1]: 58 µg/mL; concentration at 1 h [1]: 49000 ng/mL; concentration at 2 h [1]: 41000 ng/mL; concentration at 4 h [1]: 31000 ng/mL
11 | N[C@@H](C(=O)N[C@@H]1C(=O)N2C(C(=O)O)=C(Cc3cccc(C(=O)O)c3)CS[C@H]12)c1ccccc1 [XLI, 3-(m-Carboxybenzyl)-7β-(D-α-phenylglycyl)amino-ceph-3-em-4-carboxylic acid] | 2.5 (≈ 5.35 µM) |  | 0.12 (≈ 0.257 µM) | 0.25 (≈ 0.535 µM) | 2.5 (≈ 5.35 µM) | 2.5 (≈ 5.35 µM) | 12.5 (≈ 26.7 µM) | 0.25 (≈ 0.535 µM) | 1.25 (≈ 2.67 µM) | 
12 | NC(=O)N[C@H](Cc1c[nH]c2ccccc12)C(=O)N[C@@H](C(=O)N[C@@H]1C(=O)N2C(C(=O)O)=C(Cc3ccc(C(=O)O)cc3)CS[C@H]12)c1ccccc1 [XXVI] | 5 (≈ 7.18 µM) | 5 (≈ 7.18 µM) |  | 0.5 (≈ 0.718 µM) | 12.5 (≈ 17.9 µM) | 5 (≈ 7.18 µM) | 5 (≈ 7.18 µM) |  | 5 (≈ 7.18 µM) | 
13 | CN(N=Cc1ccccc1)C(=O)N[C@@H](C(=O)N[C@@H]1C(=O)N2C(C(=O)O)=C(Cc3ccc(C(=O)O)cc3)CS[C@H]12)c1ccccc1 [XIX, 3-(p-Carboxybenzyl)-7β-[D-α-(3-benzylideneimino-3-methylureido)phenylacetamido]ceph-3-em-4-carboxylic acid] | 5 (≈ 7.97 µM) | 2.5 (≈ 3.98 µM) | 0.12 (≈ 0.191 µM) | 1.25 (≈ 1.99 µM) | 5 (≈ 7.97 µM) | 5 (≈ 7.97 µM) | 12.5 (≈ 19.9 µM) |  |  | MIC (Enterobacter cloacae N1): 5 µg/mL (≈ 7.97 µM); MIC (P. morganii): 12.5 µg/mL (≈ 19.9 µM); MIC (Serratia marcescens US32): 12.5 µg/mL (≈ 19.9 µM)
14 | N[C@@H](C(=O)N[C@@H]1C(=O)N2C(C(=O)O)=C(Cc3ccccc3C(=O)O)CS[C@H]12)c1ccccc1 [LV, 3-(o-Carboxybenzyl)-7β-(D-α-phenylglycyl)aminoceph-3-em-4-carboxylic acid] | 5 (≈ 10.7 µM) |  | 5 (≈ 10.7 µM) | 5 (≈ 10.7 µM) | 5 (≈ 10.7 µM) |  | 12.5 (≈ 26.7 µM) | 1.25 (≈ 2.67 µM) |  | MIC (P. mirabilis 889): 5 µg/mL (≈ 10.7 µM)
15 | CN(N=Cc1ccccc1)C(=O)N[C@@H](C(=O)N[C@@H]1C(=O)N2C(C(=O)O)=C(Cc3ccccc3C(=O)O)CS[C@H]12)c1ccccc1 [LVIII, 3-(o-Carboxybenzyl)-7β-[D-α-(3-benzylideneimino-3-methylureido)-phenylacetamido]-ceph-3-em-4-carboxylic acid] |  | 4 (≈ 6.37 µM) | 0.2 (≈ 0.319 µM) | 8 (≈ 12.7 µM) |  |  | 8 (≈ 12.7 µM) |  |  | MIC (Enterobacter cloacae N1): 8 µg/mL (≈ 12.7 µM)
16 | N[C@@H](C(=O)N[C@@H]1C(=O)N2C(C(=O)O)=C(Cc3ccc(C(=O)O)cc3)CS[C@H]12)c1ccc(O)cc1.O=C(O)C(F)(F)F [XVII, 3-(p-carboxybenzyl)-7β-(D-α-p-hydroxyphenylglycyl)aminoceph-3-em-4-carboxylic acid trifluoroacetic acid salt] |  |  | 0.5 | 2.5 | 2.5 | 5 |  | 5 | 5 | 
